Experimental data published in PubChem BioAssay AID1963849 (Molecular Pharmacology Branch, DTP, NCI, 2024).

Tested on: 299254-011-R-J1-PDC complex spheroid viability
Assay: Anticancer human tumor 299254-011-R-J1-PDC patient-derived melanoma cell line growth inhibition [POLQ]
Details: for IC50: curve of first compound; for viability, T/C: stronger effect = lower value; active = viability on the fitted dose curve at most 10% of control; inactive = the rest
In short: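 Growth inhibition in 3D: complex spheroids (tumor PDC, HUVEC, MSC) treated with POLQ inhibitor combinations; where Cmax unknown, highest tested concentration 10 microM, except SN-38 at 1 microM.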
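Note: spheroids exposed to drugs for one week before measurement.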
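Throughout, for viability, T/C: percent viability relative to DMSO vehicle control taken as 100%.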

O=C(c1cc(Cc2n[nH]c(=O)c3ccccc23)ccc1F)N1CCN(C(=O)C2CC2)CC1 + COC1C(OC(N)=O)C(O)C(Oc2ccc3c(O)c(NC(=O)c4ccc(O)c(CC=C(C)C)c4)c(=O)oc3c2C)OC1(C)C
> 10 µM: IC50 (second compound 0.0316 µM) | IC50 (second compound 0.1 µM) | IC50 (second compound 0.316 µM) | IC50 (second compound 1 µM) | IC50 (second compound 3.16 µM) | IC50 (second compound 10 µM)
inactive: viability, T/C (second compound 0.0316 µM, first compound 0.0316 µM) 129% | viability, T/C (second compound 0.0316 µM, first compound 0.1 µM) 114% | viability, T/C (second compound 0.0316 µM, first compound 0.316 µM) 114% | viability, T/C (second compound 0.0316 µM, first compound 1 µM) 122% | viability, T/C (second compound 0.0316 µM, first compound 3.16 µM) 116% | viability, T/C (second compound 0.0316 µM, first compound 10 µM) 101% | viability, T/C (second compound 0.1 µM, first compound 0.0316 µM) 107% | viability, T/C (second compound 0.1 µM, first compound 0.1 µM) 113% | viability, T/C (second compound 0.1 µM, first compound 0.316 µM) 117% | viability, T/C (second compound 0.1 µM, first compound 1 µM) 129% | viability, T/C (second compound 0.1 µM, first compound 3.16 µM) 131% | viability, T/C (second compound 0.1 µM, first compound 10 µM) 93.6% | viability, T/C (second compound 0.316 µM, first compound 0.0316 µM) 116% | viability, T/C (second compound 0.316 µM, first compound 0.1 µM) 110% | viability, T/C (second compound 0.316 µM, first compound 0.316 µM) 119% | viability, T/C (second compound 0.316 µM, first compound 1 µM) 135% | viability, T/C (second compound 0.316 µM, first compound 3.16 µM) 106% | viability, T/C (second compound 0.316 µM, first compound 10 µM) 99.5% | viability, T/C (second compound 1 µM, first compound 0.0316 µM) 128% | viability, T/C (second compound 1 µM, first compound 0.1 µM) 122% | viability, T/C (second compound 1 µM, first compound 0.316 µM) 121% | viability, T/C (second compound 1 µM, first compound 1 µM) 127% | viability, T/C (second compound 1 µM, first compound 3.16 µM) 134% | viability, T/C (second compound 1 µM, first compound 10 µM) 98.2% | viability, T/C (second compound 3.16 µM, first compound 0.0316 µM) 144% | viability, T/C (second compound 3.16 µM, first compound 0.1 µM) 114% | viability, T/C (second compound 3.16 µM, first compound 0.316 µM) 109% | viability, T/C (second compound 3.16 µM, first compound 1 µM) 121% | viability, T/C (second compound 3.16 µM, first compound 3.16 µM) 117% | viability, T/C (second compound 3.16 µM, first compound 10 µM) 98.9% | viability, T/C (second compound 10 µM, first compound 0.0316 µM) 128% | viability, T/C (second compound 10 µM, first compound 0.1 µM) 119% | viability, T/C (second compound 10 µM, first compound 0.316 µM) 120% | viability, T/C (second compound 10 µM, first compound 1 µM) 128% | viability, T/C (second compound 10 µM, first compound 3.16 µM) 108% | viability, T/C (second compound 10 µM, first compound 10 µM) 95.2%

CC(=O)O[C@H]1C(=O)[C@@]2(C)[C@H]([C@H](OC(=O)c3ccccc3)[C@]3(O)C[C@H](OC(=O)[C@H](O)[C@@H](NC(=O)c4ccccc4)c4ccccc4)C(C)=C1C3(C)C)[C@]1(OC(C)=O)CO[C@@H]1C[C@@H]2O + Nc1ccc(C#CCN(C(=O)Cc2ncc(C(F)(F)F)cc2C(F)(F)F)c2ccc(F)cc2)nn1
< 0.00949 µM: IC50 (second compound 10 µM)
inactive: viability, T/C (second compound 0.0316 µM, first compound 0.00949 µM) 90.2% | viability, T/C (second compound 0.0316 µM, first compound 0.03 µM) 76.6% | viability, T/C (second compound 0.0316 µM, first compound 0.0949 µM) 59.5% | viability, T/C (second compound 0.0316 µM, first compound 0.3 µM) 37.8% | viability, T/C (second compound 0.0316 µM, first compound 0.949 µM) 28.6% | viability, T/C (second compound 0.0316 µM, first compound 3 µM) 24.8% | viability, T/C (second compound 0.1 µM, first compound 0.00949 µM) 103% | viability, T/C (second compound 0.1 µM, first compound 0.03 µM) 78.6% | viability, T/C (second compound 0.1 µM, first compound 0.0949 µM) 43.7% | viability, T/C (second compound 0.1 µM, first compound 0.3 µM) 39.5% | viability, T/C (second compound 0.1 µM, first compound 0.949 µM) 28.4% | viability, T/C (second compound 0.1 µM, first compound 3 µM) 26.9% | viability, T/C (second compound 0.316 µM, first compound 0.00949 µM) 84.2% | viability, T/C (second compound 0.316 µM, first compound 0.03 µM) 85.3% | viability, T/C (second compound 0.316 µM, first compound 0.0949 µM) 52% | viability, T/C (second compound 0.316 µM, first compound 0.3 µM) 32.5% | viability, T/C (second compound 0.316 µM, first compound 0.949 µM) 27.8% | viability, T/C (second compound 0.316 µM, first compound 3 µM) 24.5% | viability, T/C (second compound 1 µM, first compound 0.00949 µM) 80.8% | viability, T/C (second compound 1 µM, first compound 0.03 µM) 58.2% | viability, T/C (second compound 1 µM, first compound 0.0949 µM) 39.2% | viability, T/C (second compound 1 µM, first compound 0.3 µM) 32.3% | viability, T/C (second compound 1 µM, first compound 0.949 µM) 21.7% | viability, T/C (second compound 1 µM, first compound 3 µM) 25.4% | viability, T/C (second compound 3.16 µM, first compound 0.00949 µM) 74.7% | viability, T/C (second compound 3.16 µM, first compound 0.03 µM) 43.5% | viability, T/C (second compound 3.16 µM, first compound 0.0949 µM) 35.5% | viability, T/C (second compound 3.16 µM, first compound 0.3 µM) 25.9% | viability, T/C (second compound 3.16 µM, first compound 0.949 µM) 22.7% | viability, T/C (second compound 3.16 µM, first compound 3 µM) 25.4% | viability, T/C (second compound 10 µM, first compound 0.00949 µM) 47.5% | viability, T/C (second compound 10 µM, first compound 0.03 µM) 36% | viability, T/C (second compound 10 µM, first compound 0.0949 µM) 26.9% | viability, T/C (second compound 10 µM, first compound 0.3 µM) 20.9% | viability, T/C (second compound 10 µM, first compound 0.949 µM) 24.8% | viability, T/C (second compound 10 µM, first compound 3 µM) 23.2%
0.0856 µM: IC50 (second compound 0.1 µM)
0.109 µM: IC50 (second compound 0.316 µM)
0.0249 µM: IC50 (second compound 3.16 µM)
0.153 µM: IC50 (second compound 0.0316 µM)
0.0502 µM: IC50 (second compound 1 µM)
